Values joined by “and” are separate entries in the source; they are usually repeats but may differ in a detail not shown here. Identical values can stand only once.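 Briefly, cells in 96-well plates were exposed to five compound concentrations for 48 h, and endpoints were estimated by linear interpolation. The concentration for 50% growth inhibition is given as GI50. TGI marks complete inhibition of growth.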
How the values were obtained:
Assay in all cases: NCI anticancer screen, dose series, 48 h
SW-620 colon = system: SW-620 colon
SK-MEL-28 melanoma = system: SK-MEL-28 melanoma
SR leukemia = system: SR leukemia
HL-60(TB) leukemia = system: HL-60(TB) leukemia
SK-MEL-2 melanoma = system: SK-MEL-2 melanoma
M14 melanoma = system: M14 melanoma
SNB-75 CNS = system: SNB-75 CNS
SF-295 CNS = system: SF-295 CNS
KM12 colon = system: KM12 colon
RXF 393 renal = system: RXF 393 renal

Compound	GI50 (SW-620 colon)	TGI (SW-620 colon)	GI50 (SK-MEL-28 melanoma)	TGI (SK-MEL-28 melanoma)	GI50 (SR leukemia)	TGI (SR leukemia)	GI50 (HL-60(TB) leukemia)	TGI (HL-60(TB) leukemia)	GI50 (SK-MEL-2 melanoma)	TGI (SK-MEL-2 melanoma)	GI50 (M14 melanoma)	TGI (M14 melanoma)	GI50 (SNB-75 CNS)	TGI (SNB-75 CNS)	GI50 (SF-295 CNS)	TGI (SF-295 CNS)	GI50 (KM12 colon)	TGI (KM12 colon)	GI50 (RXF 393 renal)	TGI (RXF 393 renal)
CN1/C(=C\C(I)C(I)C2=[N+](C)c3ccccc3C2(C)C)C(C)(C)c2ccccc21 (stereo unspecified)	0.333 µM	17 µM	0.522 µM	19.8 µM	0.151 µM	13.8 µM	0.178 µM	0.651 µM	0.39 µM	2.75 µM	0.367 µM	13.2 µM	0.416 µM	9.77 µM	0.192 µM	2.48 µM	0.33 µM	11.8 µM	0.497 µM	3.6 µM
O=C(c1ccccc1Nc1ccnc(C(F)(F)F)c1)N1CCN(c2cccc(Cl)c2)CC1	25 µM	> 100 µM	26.5 µM	> 100 µM	13.5 µM	> 58.7 µM	16.2 µM	59 µM	21.1 µM	50.3 µM	21.4 µM	> 74.3 µM	26 µM	> 92.2 µM	16.5 µM	65.6 µM	25.7 µM	> 80.2 µM	16.3 µM	64.8 µM
c1ccc2c(CNCCCCCCNCc3cccc4ccccc34)cccc2c1	–	14.1 µM	–	3.29 µM	–	4.47 µM	–	3.45 µM	–	3.02 µM	–	3.25 µM	–	6.68 µM	–	24.8 µM	–	15.1 µM	–	6.9 µM
CC(=O)OCC1OC(OC2C(COC(C)=O)OC(OCCC[S-])C(OC(C)=O)C2OC(C)=O)C(OC(C)=O)C(OC(C)=O)C1OC(C)=O.[Au+].c1ccc(CN2[CH-]N(Cc3ccccc3)C(c3ccccc3)=C2c2ccccc2)cc1 (stereo unspecified)	3.68 µM	13.8 µM	3.53 µM	18.5 µM	2.61 µM	20.6 µM	2.49 µM	6.43 µM	2.99 µM	8.92 µM	3.26 µM	14.5 µM	2.86 µM	17 µM	2.14 µM	7.3 µM	3.8 µM	16.1 µM	3.28 µM	12.3 µM
C/C(=C\c1ccc(Cl)cc1)C(C)(C)C(=O)O	–	> 100 µM	–	> 100 µM	–	> 100 µM	–	> 100 µM	–	> 100 µM	–	> 100 µM	–	> 100 µM	–	> 100 µM	–	> 100 µM	–	> 100 µM
Nc1ccc(-c2nc3ccc4[nH]ncc4c3c3c2CCCC3)cc1F	0.907 µM	7.52 µM	1.81 µM	6.86 µM	1.12 µM	9.1 µM	1.24 µM	3.42 µM	1.27 µM	6.19 µM	0.686 µM	6.92 µM	1.35 µM	3.42 µM	2.85 µM	11.1 µM	1.11 µM	6.3 µM	0.36 µM	2 µM
COc1ccc(OC)c(-c2nc3sccn3c2/C=C2/C(=O)Nc3ccc(Cl)cc32)c1	31.2 µM	> 100 µM	20.6 µM	39.8 µM	18.5 µM	53.4 µM	31.2 µM	76 µM	17.5 µM	35.2 µM	23.1 µM	53.8 µM	19.7 µM	48.6 µM	19.4 µM	51.5 µM	35.8 µM	> 100 µM	27.6 µM	> 100 µM
CC1(C)CCC[C@]23C(=O)O[C@](O)(C(=O)C4=C[C@@](C)(/C=C/CCCc5ccc6ccc7cccc8ccc5c6c78)CC[C@@]42O)[C@@H]13	0.179 µM	0.379 µM	0.144 µM	0.317 µM	0.292 µM	–	0.248 µM	0.649 µM	0.217 µM	0.471 µM	0.196 µM	0.409 µM	0.149 µM	0.284 µM	0.178 µM	0.336 µM	0.154 µM	0.34 µM	0.174 µM	0.335 µM
COC(=O)C(=O)C1(CCC(C)=O)c2ccccc2-c2ccccc21	–	> 100 µM	–	> 100 µM	–	> 100 µM	–	> 100 µM	–	> 100 µM	–	> 100 µM	–	> 100 µM	–	> 100 µM	–	> 100 µM	–	> 100 µM
CCSc1oc(-c2ccccc2)nc1[P+](c1ccccc1)(c1ccccc1)c1ccccc1	0.305 µM	7.32 µM	0.467 µM	2.32 µM	0.377 µM	24.2 µM	0.149 µM	0.469 µM	0.276 µM	0.866 µM	0.334 µM	1.84 µM	0.177 µM	0.727 µM	0.241 µM	0.739 µM	0.233 µM	1.09 µM	0.331 µM	1.93 µM
O=C1c2ccccc2C(=O)c2c1ccc(C(Br)Br)c2[N+](=O)[O-]	0.488 µM	2.07 µM	2.63 µM	6.56 µM	0.259 µM	1.75 µM	1.87 µM	4.22 µM	1.91 µM	4.09 µM	1.97 µM	3.94 µM	14.1 µM	28.7 µM	3.7 µM	15.7 µM	1.85 µM	3.81 µM	1.26 µM	2.72 µM
COc1ccc(-c2ccc3c(NC(=O)C4CC4)n[nH]c3n2)cc1	> 25 µM	> 25 µM	> 25 µM	> 25 µM	> 25 µM	> 25 µM	> 25 µM	> 25 µM	> 25 µM	> 25 µM	> 25 µM	> 25 µM	5.1 µM	> 17.2 µM	> 25 µM	> 25 µM	> 25 µM	> 25 µM	15 µM	> 25 µM
Cc1cccc(NC(=O)C(=O)C2C(=O)NC(=O)NC2=O)c1C	–	> 100 µM	–	> 100 µM	–	> 100 µM	–	> 100 µM	–	> 100 µM	–	> 100 µM	–	> 100 µM	–	> 100 µM	–	> 100 µM	–	> 100 µM
CC(C)[C@@H]1C=C(c2ccccc2)c2ccccc2C1C(C#N)(C#N)C(C)C (stereo partly specified)	–	> 100 µM	–	> 100 µM	–	> 100 µM	–	> 100 µM	–	> 100 µM	–	> 100 µM	–	> 100 µM	–	> 100 µM	–	> 100 µM	–	> 100 µM
O=C1c2ccccc2C(=O)c2c(NCCCNCCO)ccc(NCCCNCCO)c21	–	17.6 µM	–	16.8 µM	–	20.8 µM	–	33.8 µM	–	17.7 µM	–	25.5 µM	–	23.3 µM	–	31.9 µM	–	18.4 µM	–	18.2 µM
COc1cc(C)c(C(=O)O[C@H]2[C@H](O[C@H]3[C@@H](O)COC(O[C@H]4C[C@H]5[C@@H]6CC=C7C[C@@H](O)CC[C@]7(C)[C@H]6CC[C@]5(C)[C@H]4[C@H](C)C(=O)CCC(C)C)[C@@H]3OC(C)=O)OC[C@@H](O)[C@@H]2O)c(C)c1 (stereo partly specified)	< 0.01 µM	0.183 µM	< 0.01 µM	0.0192 µM	< 0.01 µM	21.1 µM	0.016 µM	20 µM	< 0.01 µM	0.302 µM	< 0.01 µM	< 0.01 µM	< 0.01 µM	7.71 µM	< 0.01 µM	< 0.01 µM	0.153 µM	18.4 µM	< 0.01 µM	< 0.01 µM
C=CN1C(=O)OC(c2ccccc2)C1c1ccccc1 (stereo unspecified)	–	> 100 µM	> 100 µM	> 100 µM	–	> 100 µM	–	> 100 µM	> 100 µM	> 100 µM	> 100 µM	> 100 µM	–	21.9 µM and > 100 µM	–	> 100 µM	> 100 µM	> 100 µM	> 100 µM	> 100 µM
COc1ccc(-c2oc(=O)ccc2C#Cc2cc(OC)c(OC)c(OC)c2)cc1O	31.1 µM	> 100 µM	37.7 µM	> 100 µM	2.75 µM	33.5 µM	8.96 µM	35.7 µM	28 µM	> 100 µM	26.9 µM	> 100 µM	20.8 µM	69.9 µM	12.8 µM	75.4 µM	50 µM	> 100 µM	10.9 µM	31.9 µM
C[C@]12O[C@H](C[C@]1(O)CO)n1c3ccccc3c3c4c(c5c6ccccc6n2c5c31)CNC4=O	0.05 µM and 0.0589 µM	> 10 µM and 7.84 µM	0.0851 µM and 0.0854 µM	1.12 µM and 1.36 µM	0.0203 µM and 0.022 µM	0.474 µM and 0.24 µM	0.233 µM and 0.0928 µM	> 2.31 µM and 1.23 µM	0.0196 µM and < 0.0117 µM	3.73 µM and 1.78 µM	0.0159 µM and 0.0297 µM	0.492 µM and 1.97 µM	0.0492 µM and 0.0852 µM	0.556 µM and 1.3 µM	0.171 µM and 0.101 µM	2.45 µM and 2.02 µM	0.00535 µM and < 0.01 µM	1.4 µM and 0.982 µM	0.0385 µM and 0.0189 µM	0.622 µM and 0.649 µM
S=c1nc(-c2nc(=S)[nH]c3c2CCCCCCCCCC3)c2c([nH]1)CCCCCCCCCC2	–	> 100 µM	–	> 100 µM	–	> 100 µM	–	> 100 µM	–	> 100 µM	–	> 100 µM	–	> 100 µM	–	> 100 µM	–	> 100 µM	–	> 100 µM
CN(C)C[C@H]1CC[C@@H](CN(C)C)C1=O	–	5.55 µM	–	12.2 µM	–	> 50 µM	–	4.1 µM	–	15.4 µM	–	16.7 µM	–	> 28.7 µM	–	> 50 µM	–	27.5 µM	–	16.8 µM
CCCCCCCCCCCC(=O)OCC1OC(n2cc(F)c(=O)[nH]c2=O)C(NC(=O)OCc2ccccc2)C(O)C1O (stereo unspecified)	–	41.5 µM	–	35.4 µM	–	41.2 µM	–	49.7 µM	–	42.5 µM	–	36.2 µM	–	28.1 µM	–	63.9 µM	–	42.9 µM	–	73.6 µM
CN(C)CCCNc1nn2c(=O)c3ccccc3nc2c2ccccc12	4.94 µM	19 µM	15.8 µM	29.3 µM	2.55 µM	8.74 µM	18.1 µM	72.7 µM	20.1 µM	43.8 µM	11.8 µM	24.5 µM	2.73 µM	51.1 µM	3.86 µM	24.5 µM	11.2 µM	27.2 µM	14.2 µM	30.6 µM
CC(C)C[C@H](NC(=O)[C@H](CCc1ccccc1)NC(=O)CN1CCOCC1)C(=O)N[C@@H](Cc1ccccc1)C(=O)N[C@@H](CC(C)C)C(=O)[C@@]1(C)CO1	< 0.01 µM	–	0.0475 µM	1.57 µM	0.0149 µM	> 100 µM	0.0268 µM	0.093 µM	0.0144 µM	0.0543 µM	< 0.0131 µM	0.0446 µM	0.018 µM	0.0509 µM	< 0.01 µM	0.0561 µM	< 0.01 µM	0.0199 µM	< 0.014 µM	0.0246 µM
C/C1=C\[C@H](C)C[C@H](C)OC(=O)C[C@H](c2ccc(O)cc2)NC(=O)[C@@H](Cc2c(Br)[nH]c3ccccc23)N(C)C(=O)[C@H](C)NC(=O)[C@@H](C)C1	0.0347 µM	> 100 µM	0.0272 µM	0.308 µM and 1.74 µM	0.587 µM	4.21 µM	0.0176 µM	0.384 µM and 0.175 µM	0.0999 µM and 0.0207 µM	0.251 µM and 0.0476 µM	0.0456 µM	–	0.0168 µM	0.175 µM and 0.0335 µM	0.0349 µM	0.699 µM and 0.18 µM	–	39.8 µM	0.228 µM	0.464 µM and 0.615 µM
C=C(C=O)C1CC(=O)C(C(=O)OC)[C@@H]2O[C@@](C)(CC2=O)C[C@@H]2OC(=O)[C@]3(O[C@@H]23)[C@@H](C(=O)OC)C1 (stereo partly specified)	12.2 µM	47.3 µM	20.2 µM	66.5 µM	2.63 µM	7.96 µM	20.1 µM	53.5 µM	15.6 µM	52.9 µM	14.8 µM	30.4 µM	31 µM	> 100 µM	11.2 µM	28.6 µM	19.2 µM	45 µM	9.3 µM	33.6 µM
CCN1CCN(c2nc(NNC(=O)Cc3ccccc3)nc(N3CCN(C(c4ccccc4)c4ccccc4)CC3)n2)CC1	1.87 µM	3.69 µM	1.6 µM	2.98 µM	1.92 µM	5.31 µM	1.89 µM	4.04 µM	2.1 µM	4.5 µM	1.83 µM	3.41 µM	1.78 µM	4.36 µM	2.01 µM	3.99 µM	2.07 µM	4.35 µM	1.92 µM	4.08 µM

Source: PubChem BioAssay (NCI)
